According to US20020155106A1 (priority 2000, published 2002):
Ends that are not written are not given here. amino resin = not defined here; spacer = not defined here

Columns and labels:
[1] = molecular target: alpha-1-proteinase inhibitor (API) (Homo sapiens, UniProt P01009); format: binding
PPV [2] = format: binding, porcine parvovirus
SV40 = format: binding, simian virus 40
Polio Virus = format: binding, poliovirus
PRV [3] = format: binding, pseudorabies virus; settings: peptide resin
HIV = format: binding, human immunodeficiency virus
BVDV = format: binding, bovine viral diarrhea virus
HAV [4] = format: binding, hepatitis A virus
PPV [5] = format: binding, porcine parvovirus; remark: listed apart in the source
HAV [6] = format: binding, hepatitis A virus; remark: listed apart in the source
PRV [7] = format: binding, pseudorabies virus

Chain of alpha-1-proteinase inhibitor (API) (P01009 25-418): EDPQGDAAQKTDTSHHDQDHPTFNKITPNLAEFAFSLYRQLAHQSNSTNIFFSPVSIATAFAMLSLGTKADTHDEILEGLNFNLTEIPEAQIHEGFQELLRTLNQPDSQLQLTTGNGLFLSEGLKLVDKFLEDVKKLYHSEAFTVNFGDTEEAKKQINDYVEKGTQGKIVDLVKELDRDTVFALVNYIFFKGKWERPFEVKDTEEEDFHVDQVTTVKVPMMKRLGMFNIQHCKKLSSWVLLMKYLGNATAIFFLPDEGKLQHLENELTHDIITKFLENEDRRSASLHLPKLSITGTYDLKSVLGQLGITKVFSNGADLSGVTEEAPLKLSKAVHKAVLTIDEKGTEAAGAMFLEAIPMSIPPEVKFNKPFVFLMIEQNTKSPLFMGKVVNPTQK

APPRTV: Table 2 sample 5
binding to API [1]: API-binding

AQTFHD: Table 2 sample 1
binding to API [1]: API-binding

Acetyl-FLLPYK: N-acetylated FLLPYK on resin (Ac-FLLPYK)
logs reduction (clearance) of PPV in column flow-through (PPV [2]): no clearance

FLLFQP: Table 1 sample 5
Screen (positive bead, ligand identified for virus) (SV40): SV40

FLLIDA: Table 1 sample 8
Screen (positive bead, ligand identified for virus) (Polio Virus): Polio

FLLPYK: consensus peptide synthesized onto amino resin with a spacer at the carboxy terminal (FLLPYK-{spacer-amino resin}; not fully specified; reading uncertain)
binds PRV (PRV [3]): binds
binds HIV (HIV): binds
binds BVDV (BVDV): binds
logs reduction (clearance) of PPV in column flow-through (PPV [2]): five
binds HAV (HAV [4]): binds

FLLYAK: also Table 4 sample 46
binds PPV (sequences that bind to all three viruses) (PPV [5]): bind
binds HAV (sequences that bind to all three viruses) (HAV [6]): bind
binds PRV (sequences that bind to all three viruses) (PRV [7]): bind

LKRIEY: Table 2 sample 3
binding to API [1]: API-binding

NFZQNT: Table 2 sample 7
binding to API [1]: API-binding

RDYDTD: Table 2 sample 2
binding to API [1]: API-binding

SDLRRL: Table 2 sample 4
binding to API [1]: API-binding

SKNNAA: Table 2 sample 8
binding to API [1]: API-binding

VLYTNN: Table 2 sample 6
binding to API [1]: API-binding

amino-FLLP: truncated peptide on resin (on resin)
logs reduction (clearance) of PPV in column flow-through (PPV [2]): no significant clearance
